Assay results: patent publication US20100099681A1, “SUBSTITUTED 5-AMINOPYRAZOLES AND USE THEREOF” (BAYER SCHERING PHARMA AKTIENGESELLSCHAFT, priority 2008, published 2010)
pIC50: −log10 of the molar value.

What was measured:
Assay type in all cases: cell-based
[1] = target: T1, adenosine receptor subtype A2a (Homo sapiens, UniProt P29274); assay: Indirect determination of adenosine antagonism via gene expression (luciferase reporter), A2a; conditions: CHO K1 cells, CRE luciferase reporter; inhibition of luciferase response to agonist 30 nM NECA
T1 construct: expressed in transfected cells; host or cells: CHO K1
T1 sequence (P29274 whole entry): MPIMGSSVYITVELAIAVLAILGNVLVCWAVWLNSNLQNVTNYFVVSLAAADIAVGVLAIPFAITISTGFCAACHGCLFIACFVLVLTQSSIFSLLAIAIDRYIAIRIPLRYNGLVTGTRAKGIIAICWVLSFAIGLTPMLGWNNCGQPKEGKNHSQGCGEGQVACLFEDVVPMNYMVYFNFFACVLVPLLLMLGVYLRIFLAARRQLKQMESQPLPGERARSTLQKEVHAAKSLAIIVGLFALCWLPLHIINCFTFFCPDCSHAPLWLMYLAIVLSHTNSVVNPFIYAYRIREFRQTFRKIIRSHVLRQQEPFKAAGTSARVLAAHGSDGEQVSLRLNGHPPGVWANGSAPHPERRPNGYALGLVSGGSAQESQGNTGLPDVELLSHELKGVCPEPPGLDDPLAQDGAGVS
Excerpt: (§1) Cells of the permanent line CHO K1 (Chinese Hamster Ovary) are stably transfected with a reporter construct (CRE luciferase) and the cDNA for the adenosine receptor subtypes A2a or A2b. A2a or A2b receptors are coupled via Gαs proteins to adenylate cyclase. Through receptor activation, the adenylate cyclase is activated and therefore the cAMP level in the cell is increased. Via the reporter construct, a cAMP-dependent promoter, the change in the cAMP level is coupled to luciferase expression.
(§2) The permanent cell lines are cultured in DMEM/F12-Glutamax (Cat.No. 31331-028; Gibco) with 10% FCS (fetal calf serum) and various additives (10 ml/liter 1M HEPES (Cat.No. 15630; Gibco), 14 ml/liter MEM sodium pyruvate (Cat.No. 11360-039; Gibco) at 37° C. under 5% carbon dioxide, and split twice weekly.
(§3) For testing in the 384-well or 96-well plate format, the cells are sown at 2000 or 5000 cells/well in 25 or 50 μl/well test medium (OptiMEM-Glutamax with 2.5% activated-charcoal-treated FCS, Hyclone) and cultured at 37° C. under 5% carbon dioxide until substance testing. The A2a and A2b cells are sown, 24 h before substance testing, in OptiMEM with 2.5% activated-charcoal-treated FCS (Hyclone). The A1-Gα16 cells are sown, 48 h before substance testing, in OptiMEM-Glutamax with 2.5% activated-charcoal-treated FCS and additives. The substances are pipetted at a final concentration from 1×10^−5 M to 1×10^−11 M to the test cultures, with the DMSO content on the cells not exceeding 0.5%. NECA (5-N-ethyl-carboxamido-adenosine) at a final concentration of 30 nM, which roughly corresponds to the EC50 concentration, is used as agonist for the A2a and A2b cells. 25 nM CPA (N6-cyclopenty adenosine), which roughly corresponds to the EC7-5 concentration, is used as agonist for the A1-Ga16 cells. After adding the substances, the cell plates are incubated for 3-4 h at 37° C. under 5% carbon dioxide. Then 50 μl of a solution consisting to 50% of lysis reagent (Triton buffer, PAA Cat.No. T21-160) and to 50% of luciferase substrate solution (2.5 mM ATP, 0.5 mM luciferin, 0.1 mM coenzyme A, 10 mM Tricin, 1.35 mM magnesium sulfate, 15 mM DTT, pH 7.8) is added to the cells directly before measurement. The luciferase activity is detected with a luminescence reader. The IC50 values are determined, i.e. the concentrations at which the luciferase response, produced by the respective agonist, is inhibited to 50%. The IC50 values are calculated with the computer program GraphPad PRISM (Version 3.02). ZM241385, for the A2a and A2b cells, and DPCPX (1,3-dipropyl-8-cyclopentylxanthine), for the A1-Gα16 cells, are used as reference antagonist.

[2] = target: T2, adenosine receptor subtype A1 (A1-Gα16 fusion construct) (Homo sapiens, UniProt P30542); assay: Indirect determination of adenosine antagonism via gene expression (luciferase reporter), A1; conditions: CHO K1 cells, NFAT-TA-Luc reporter, inhibition of luciferase response to agonist 25 nM CPA
T2 construct: expressed in transfected cells; host or cells: CHO K1
T2 sequence (P30542 with tags, fused parts or gaps): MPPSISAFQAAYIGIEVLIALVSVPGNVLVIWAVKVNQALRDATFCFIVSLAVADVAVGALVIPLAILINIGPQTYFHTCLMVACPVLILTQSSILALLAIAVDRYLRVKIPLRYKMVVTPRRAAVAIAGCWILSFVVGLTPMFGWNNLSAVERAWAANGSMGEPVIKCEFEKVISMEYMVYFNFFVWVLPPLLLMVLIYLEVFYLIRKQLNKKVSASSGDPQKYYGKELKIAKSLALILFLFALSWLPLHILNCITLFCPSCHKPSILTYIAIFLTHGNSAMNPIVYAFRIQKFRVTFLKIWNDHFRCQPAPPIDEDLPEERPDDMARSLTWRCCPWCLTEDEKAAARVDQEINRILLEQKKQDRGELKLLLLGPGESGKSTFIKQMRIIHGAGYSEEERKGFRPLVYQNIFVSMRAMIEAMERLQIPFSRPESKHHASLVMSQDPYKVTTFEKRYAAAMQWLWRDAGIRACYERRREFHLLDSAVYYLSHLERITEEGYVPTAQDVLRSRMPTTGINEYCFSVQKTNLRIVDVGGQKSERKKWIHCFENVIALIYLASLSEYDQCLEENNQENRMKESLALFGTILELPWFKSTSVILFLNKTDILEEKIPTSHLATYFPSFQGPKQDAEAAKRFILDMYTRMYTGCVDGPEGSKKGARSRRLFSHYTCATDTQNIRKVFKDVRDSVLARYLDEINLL
Protocol: For determination of adenosine antagonism on the adenosine receptor subtype A1, once again CHO K1 cells are stably transfected, but this time with a Ca^2+-sensitive reporter construct (NFAT-TA-Luc; Clontech) and an A1-Gα16 fusion construct. This receptor chimera is, in contrast to the native A1 receptor (Gαi-coupling), coupled to phospholipase C. The luciferase is expressed here as a function of the cytosolic Ca^2+ concentration.
as §2, §3

[3] = target: T3, adenosine receptor subtype A2b (Homo sapiens, UniProt P29275); assay: Indirect determination of adenosine antagonism via gene expression (luciferase reporter), A2b; conditions: CHO K1 cells, CRE luciferase reporter; inhibition of luciferase response to agonist 30 nM NECA
T3 construct: expressed in transfected cells; host or cells: CHO K1
T3 sequence (P29275 1-332): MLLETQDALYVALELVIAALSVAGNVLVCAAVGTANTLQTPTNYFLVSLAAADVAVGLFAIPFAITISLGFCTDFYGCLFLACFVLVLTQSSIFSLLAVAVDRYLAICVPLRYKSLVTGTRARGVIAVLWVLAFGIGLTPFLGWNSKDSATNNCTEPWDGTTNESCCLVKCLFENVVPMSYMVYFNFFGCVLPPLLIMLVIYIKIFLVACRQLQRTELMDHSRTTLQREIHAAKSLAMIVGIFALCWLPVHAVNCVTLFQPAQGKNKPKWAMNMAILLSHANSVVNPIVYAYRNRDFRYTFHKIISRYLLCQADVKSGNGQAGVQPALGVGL
Excerpt: as §1, §2, §3

Row | SMILES | pIC50 [1] | pIC50 [2] | pIC50 [3]
1 | Cc1nn(-c2ccc(F)cc2F)c(Nc2ccccc2C(=O)O)c1-c1cc(F)c2nccnc2c1 [Example 46, 2-{[1-(2,4-Difluorophenyl)-4-(8-fluoroquinoxalin-6-yl)-3-methyl-1H-pyrazol-5-yl]amino}benzoic acid] | < 5.00 | 8.07 | < 5.00
2 | Cc1ccccc1-n1nc(C)c(-c2cc(F)c3cncnc3c2)c1Nc1ccccc1C(=O)O [Example 43, 2-{[4-(5-Fluoroquinazolin-7-yl)-3-methyl-1-(2-methylphenyl)-1H-pyrazol-5-yl]amino}benzoic acid] | < 5.00 | 7.64 | < 5.00
3 | Cc1ccccc1-n1nc(C)c(-c2ccc3nccnc3c2)c1Nc1ccc(Cl)cc1C(=O)O [Example 2, 2-{[4-(Quinoxalin-6-yl)-3-methyl-1-(2-methylphenyl)-1H-pyrazol-5-yl]amino}-5-chlorobenzoic acid] | < 5.00 | 9.00 | < 5.00
4 | Cc1nn(-c2ccccc2)c(Nc2ccccc2C(=O)O)c1-c1cc2nccnc2c(F)c1F [Example 36, 2-{[4-(7,8-Difluoroquinoxalin-6-yl)-3-methyl-1-phenyl-1H-pyrazol-5-yl]amino}benzoic acid] | < 5.00 | 9.15 | < 5.00
5 | CCc1ccc(Nc2c(-c3ccc4nccnc4c3)c(C)nn2-c2ccccc2C)c(C(=O)O)c1 [Example 13, 2-{[4-(Quinoxalin-6-yl)-3-methyl-1-(2-methylphenyl)-1H-pyrazol-5-yl]amino}-5-ethylbenzoic acid] | < 5.00 | 9.00 | < 5.00
6 | Cc1ccccc1-n1nc(C)c(-c2cc(F)c3nccnc3c2)c1Nc1ccccc1C(=O)O [Example 33, 2-{[4-(8-Fluoroquinoxalin-6-yl)-3-methyl-1-(2-methylphenyl)-1H-pyrazol-5-yl]amino}benzoic acid] | < 5.00 | 9.22 | < 5.00
7 | COc1ccc(Nc2c(-c3cc4nccnc4cc3F)c(C)nn2-c2ccccc2C)c(C(=O)O)c1 [Example 16, 2-{[4-(7-Fluoroquinoxalin-6-yl)-3-methyl-1-(2-methylphenyl)-1H-pyrazol-5-yl]amino}-5-methoxybenzoic acid] | < 5.00 | 8.80 | < 5.00
8 | Cc1ccccc1-n1nc(C)c(-c2cc3nccnc3c(F)c2OCCO)c1Nc1ccccc1C(=O)O [Example 31, 2-({4-[8-Fluoro-7-(2-hydroxyethoxy)quinoxalin-6-yl]-3-methyl-1-(2-methylphenyl)-1H-pyrazol-5-yl}amino)benzoic acid] |  | 7.38 | 
9 | Cc1ccccc1-n1nc(C)c(-c2ccc3cccnc3c2)c1Nc1ccccc1C(=O)O [Example 27, 2-{[4-(Quinolin-7-yl)-3-methyl-1-(2-methylphenyl)-1H-pyrazol-5-yl]amino}benzoic acid] | < 5.00 | 7.00 | < 5.00
10 | Cc1ccccc1-n1nc(C(F)(F)F)c(-c2ccc3nccnc3c2)c1Nc1ccc(Cl)cc1C(=O)O [Example 6, 2-{[4-(Quinoxalin-6-yl)-1-(2-methylphenyl)-3-(trifluoromethyl)-1H-pyrazol-5-yl]amino}-5-chlorobenzoic acid] | < 5.00 | 8.02 | < 5.00
11 | Cc1ccccc1-n1nc(C)c(-c2ccc3ncc(N(C)C)nc3c2)c1Nc1ccccc1C(=O)O [Example 28, 2-({4-[3-(Dimethylamino)quinoxalin-6-yl]-3-methyl-1-(2-methylphenyl)-1H-pyrazol-5-yl}amino)benzoic acid] |  | 7.72 | 
12 | Cc1ccccc1-n1nc(C)c(-c2ccn3nc(N)nc3c2)c1Nc1ccccc1C(=O)O [Example 39, 2-{[4-(2-Amino [1,2,4]triazolo[1,5-a]pyridin-7-yl)-3-methyl-1-(2-methylphenyl)-1H-pyrazol-5-yl]amino}benzoic acid] | < 5.00 | 9.00 | < 5.00
13 | CCOc1ccccc1-n1nc(C)c(-c2ccc3nccnc3c2)c1Nc1ccc(OC)cc1C(=O)O [Example 22, 2-{[4-(Quinoxalin-6-yl)-1-(2-ethoxyphenyl)-3-methyl-1H-pyrazol-5-yl]amino}-5-methoxybenzoic acid] | < 5.00 | 9.00 | < 5.00
14 | COc1ccc(Nc2c(-c3ccc4[nH]ncc4c3)c(C)nn2-c2ccccc2C)c(C(=O)O)c1 [Example 9, 2-{[4-(1H-Indazol-5-yl)-3-methyl-1-(2-methylphenyl)-1H-pyrazol-5-yl]amino}-5-methoxybenzoic acid] | < 5.00 | 7.95 | < 5.00
15 | COc1ccc(Nc2c(-c3ccc4scnc4c3)c(C)nn2-c2ccccc2C)c(C(=O)O)c1 [Example 11, 2-{[4-(1,3-Benzothiazol-5-yl)-3-methyl-1-(2-methylphenyl)-1H-pyrazol-5-yl]amino}-5-methoxybenzoic acid] | < 5.00 | 7.93 | < 5.00
16 | COc1ccnc2ccc(-c3c(C)nn(-c4ccccc4C)c3Nc3ccccc3C(=O)O)cc12 [Example 32, 2-{[4-(4-Methoxyquinolin-6-yl)-3-methyl-1-(2-methylphenyl)-1H-pyrazol-5-yl]amino}benzoic acid] |  | 7.11 | 
17 | COc1ccc(Nc2c(-c3ccc4ncnn4c3)c(C)nn2-c2ccccc2C)c(C(=O)O)c1 [Example 20, 5-Methoxy-2-{[3-methyl-1-(2-methylphenyl)-4-([1,2,4]triazolo[1,5-a]pyridin-6-yl)-1H-pyrazol-5-yl]amino}benzoic acid] | < 5.00 | 8.72 | < 5.00
